Assay results reported in the RepoRT retention time repository.

Assay: RP, Waters ACQUITY Premier BEH C18, 100 × 2.1 mm, 1.7 µm, 40 °C, 0.3 to 0.4 mL/min, estimated dead time 0.73 min; A: water + 0.1% formic acid; B: acetonitrile + 0.1% formic acid; gradient (min/%B) 0/0.5 0.1/0.5 10/80 10.1/99.5 12/0.5 12.1/0.5 14.5/0.5
Conditions: stereoisomer not certain

SMILES | LC retention time [min]
CCCCC(CC)COC(=O)c1ccccc1C(=O)OCC(CC)CCCC (centres undefined) [BIS(2-ETHYLHEXYL)PHTHALATE] | 10.7
CCCC(=O)O [BUTANOATE] | 3.99
CCCC(=O)OC(CC(=O)[O-])C[N+](C)(C)C (centres undefined) [BUTYRYLCARNITINE] | 3.89
Cn1c(=O)c2c(ncn2C)n(C)c1=O [CAFFEINE] | 4.3
CC(C=CC=C(C)C=CC1=C(C)C(=O)CCC1(C)C)=CC=CC=C(C)C=CC=C(C)C=CC1=C(C)C(=O)CCC1(C)C [CANTHAXANTHIN] | 11.3
COc1cc(CNC(=O)CCCCC=CC(C)C)ccc1O [CAPSAICIN] | 7.3
CC(C)c1cc2c(c(O)c1O)C1(C(=O)O)CCCC(C)(C)C1CC2 (centres undefined) [CARNOSIC ACID] | 8.06
COc1ccccc1C=CC=O [CASSIASTEAROPTENE] | 7.94
COc1ccc(-c2oc3cc(OC)c(OC)c(O)c3c(=O)c2OC)cc1O [CASTICIN] | 6.98
NCCOP(=O)(O)OP(=O)(O)OCC1OC(n2ccc(N)nc2=O)C(O)C1O (centres undefined) [CDP-ETHANOLAMINE] | 0.882
CC1=C(O)C(=O)C=C2C1=CC=C1C2(C)CCC2(C)C3CC(C)(C(=O)O)CCC3(C)CCC12C (centres undefined) [CELASTROL] | 8.6
CC(CCC(=O)O)C1CCC2C3C(O)CC4CC(O)CCC4(C)C3CC(O)C12C (centres undefined) [CHOLATE] | 7.13
O=C(O)CNC(=O)C=Cc1ccccc1 [CINNAMOYLGLYCINE] | 5.02
O=C(O)C[C@H]1CC[C@@H](O)CC1 [CIS-4-HYDROXYCYCLOHEXYLACETIC ACID] | 4.12
O=C(OC1OC2COC(=O)c3cc(O)c(O)c(O)c3-c3c(cc(O)c(O)c3O)C(=O)OC(C2O)C1O)c1cc(O)c(O)c(O)c1 (centres undefined) [CORILAGIN] | 4.37
CC12CCC(=O)C=C1CCC1C2CCC2(C)C1CCC2(O)C(=O)CO (centres undefined) [CORTEXOLONE] | 6.74
CC12CCC(=O)C=C1CCC1C2C(O)CC2(C)C(C(=O)CO)CCC12 (centres undefined) [CORTICOSTERONE] | 6.67
CC(=O)OCC(=O)C1(O)CCC2C3CCC4=CC(=O)CCC4(C)C3C(O)CC21C (centres undefined) [CORTISOL 21-ACETATE] | 6.92
CC12CCC(=O)C=C1CCC1C2C(O)CC2(C)C1CCC2(O)C(=O)CO (centres undefined) [CORTISOL] | 6.06
CC12CCC(=O)C=C1CCC1C2C(=O)CC2(C)C1CCC2(O)C(=O)CO (centres undefined) [CORTISONE] | 6.12
O=c1cc(-c2ccc(O)cc2)oc2cc(OC3OC(CO)C(O)C(O)C3O)cc(O)c12 (centres undefined) [COSMOSIIN] | 4.75

SMILES | LC retention time [min]
C=C1C(=O)OC2C=C(C)CCC=C(C)CCC12 (centres undefined) [COSTUNOLIDE] | 7.65
O=c1oc2cc(O)ccc2c2oc3cc(O)ccc3c12 [COUMESTEROL] | 6.04
CN(CC(=O)O)C(=N)N [CREATINE] | 0.905
O=C(C=Cc1ccc(O)c(O)c1)OC1C(O)CC(O)(C(=O)O)CC1O (centres undefined) [CRYPTOCHLOROGENIC ACID] | 3.67
CC(=O)OC(C)(C)C=CC(=O)C(C)(O)C1C(O)CC2(C)C3CC=C4C(CC(O)C(=O)C4(C)C)C3(C)C(=O)CC12C (centres undefined) [CUCURBITACIN B] | 7.07
O=C(O)CCCCCCCCCCCNC(=O)NC1CCCCC1 [CUDA] | 7.47
COc1cc(C=CC(=O)CC(=O)C=Cc2ccc(O)c(OC)c2)ccc1O [CURCUMIN] | 7.18
C=C1CC2(O)OC3(CC2C(C)C)C(C)CCC13 (centres undefined) [CURCUMOL] | 7.93
Nc1ncnc2c1ncn2C1OC2COP(=O)(O)OC2C1O (centres undefined) [CYCLIC AMP] | 3.35
Nc1nc2c(ncn2C2OC3COP(=O)(O)OC3C2O)c(=O)[nH]1 (centres undefined) [CYCLIC GMP] | 3.35
O=C(O)C1CCCCC1 [CYCLOHEXANECARBOXYLIC ACID] | 5.27
Nc1ccn(C2OC(CO)C3OP(=O)(O)OC32)c(=O)n1 (centres undefined) [CYTIDINE 2',3'-CYCLIC PHOSPHATE] | 0.94
Nc1ccn(C2OC(COP(=O)(O)O)C(O)C2O)c(=O)n1 (centres undefined) [CYTIDINE MONOPHOSPHATE] | 0.941
Nc1ccn(C2OC(CO)C(O)C2O)c(=O)n1 (centres undefined) [CYTIDINE] | 1.41
CNCC(O)c1ccc(O)cc1 [D-SYNEPHRINE] | 0.927
O=c1c(-c2ccc(O)cc2)coc2cc(O)ccc12 [DAIDZEIN] | 5.4
O=c1c(-c2ccc(O)cc2)coc2cc(OC3OC(CO)C(O)C(O)C3O)ccc12 (centres undefined) [DAIDZIN] | 4.08
CCCCCCCCCC(=O)OC(CC(=O)[O-])C[N+](C)(C)C (centres undefined) [DECANOYLCARNITINE] | 6.92
CCCCCC1CCCC(=O)O1 (centres undefined) [DELTA-DECALACTONE] | 7.1
Nc1ncnc2c1ncn2C1CC(O)C(COP(=O)(O)O)O1 (centres undefined) [DEOXYADENOSINE MONOPHOSPHATE] | 2.07
Nc1ncnc2c1ncn2C1CC(O)C(CO)O1 (centres undefined) [DEOXYADENOSINE] | 3.33

SMILES | LC retention time [min]
C[N+](C)(C)CCCC(=O)[O-] [DEOXYCARNITINE] | 0.901
CC(CCC(=O)O)C1CCC2C3CCC4CC(O)CCC4(C)C3CC(O)C12C (centres undefined) [DEOXYCHOLATE] | 7.67
CC(CCC(=O)NCC(=O)O)C1CCC2C3CCC4CC(O)CCC4(C)C3CC(O)C12C (centres undefined) [DEOXYCHOLIC ACID GLYCINE CONJUGATE] | 7.24
CC(=O)OCC(=O)C1CCC2C3CCC4=CC(=O)CCC4(C)C3CCC12C (centres undefined) [DEOXYCORTICOSTERONE ACETATE] | 7.64
Nc1ccn(C2CC(O)C(COP(=O)(O)O)O2)c(=O)n1 (centres undefined) [DEOXYCYTIDINE MONOPHOSPHATE] | 1.37
Nc1ccn(C2CC(O)C(CO)O2)c(=O)n1 (centres undefined) [DEOXYCYTIDINE] | 1.78
Nc1nc2c(ncn2C2CC(O)C(COP(=O)(O)O)O2)c(=O)[nH]1 (centres undefined) [DEOXYGUANOSINE-MONOPHOSPHATE] | 1.47
Nc1nc2c(ncn2C2CC(O)C(CO)O2)c(=O)[nH]1 (centres undefined) [DEOXYGUANOSINE] | 3.39
O=c1ccn(C2CC(O)C(COP(=O)(O)O)O2)c(=O)[nH]1 (centres undefined) [DEOXYURIDINE-MONOPHOSPHATE] | 1.7
O=c1ccn(C2CC(O)C(CO)O2)c(=O)[nH]1 (centres undefined) [DEOXYURIDINE] | 3.27
CC(C)(COP(=O)(O)OP(=O)(O)OCC1OC(n2cnc3c(N)ncnc32)C(O)C1O)C(O)C(=O)NCCC(=O)NCCS (centres undefined) [DEPHOSPHO-COA] | 3.69
CC(C)=CCCC(C)C1CCC2C3CC=C4CC(O)CCC4(C)C3CCC12C (centres undefined) [DESMOSTEROL] | 9.25
CC1NC(=O)NC1CCCCCC(=O)O (centres undefined) [DETHIOBIOTIN] | 4.85
CCCCCCCCCC(=O)OCC(COP(=O)([O-])OCC[N+](C)(C)C)OC(=O)CCCCCCCCC (centres undefined) [DIDECANOYL-GLYCEROPHOSPHOCHOLINE] | 8.51
COc1cc(CNC(=O)CCCCCCC(C)C)ccc1O [DIHYDROCAPSAICIN] | 7.49
COc1cc(CCC(=O)O)ccc1O [DIHYDROFERULIC ACID] | 5.08
O=C1c2c(O)cc(O)cc2OCC1c1ccc(O)cc1 (centres undefined) [DIHYDROGENISTEIN] | 5.97
CC1CNC(=O)NC1=O (centres undefined) [DIHYDROTHYMINE] | 1.26
O=C1CCNC(=O)N1 [DIHYDROURACIL] | 1.37
COC(=O)CCC(=O)OC [DIMETHYL SUCCINATE] | 3.97
CC(C)(C(=O)O)C(=O)O [DIMETHYLMALONIC ACID] | 3.97

SMILES | LC retention time [min]
COc1ccc(-c2cc(=O)c3c(O)cc(O)cc3o2)cc1O [DIOSMETIN] | 6.12
NCCc1ccc(O)c(O)c1 [DOPAMINE] | 1.74
Cc1cn(C2CC(O)C(COP(=O)(O)OP(=O)(O)OC3OC(CO)C(O)C(O)C3O)O2)c(=O)[nH]c1=O [DTDP-D-GLUCOSE] | 1.82
CCCCCCCCC=CCCCCCCCC(=O)O [ELAIDATE] | 10
Cc1cc(O)c2c(c1)C(=O)c1cc(O)cc(O)c1C2=O [EMODIN] | 7.52
OCC(Cc1cccc(O)c1)C(CO)Cc1cccc(O)c1 (centres undefined) [ENTERODIOL] | 5.95
O=C1OCC(Cc2cccc(O)c2)C1Cc1cccc(O)c1 (centres undefined) [ENTEROLACTONE] | 6.68
Oc1ccc(C2COc3cc(O)ccc3C2)cc1 (centres undefined) [EQUOL] | 6.57
CC12CCC3c4ccc(O)cc4CCC3C1CCC2O (stereo not drawn) [ESTRADIOL-17ALPHA] | 7.15
CCOC(=O)Cc1c[nH]c2ccccc12 [ETHYL 3-INDOLEACETATE] | 7.2
CCC(C(=O)O)C(=O)O [ETHYLMALONATE] | 3.85
Cc1cc2nc3c(=O)[nH]c(=O)nc-3n(CC(O)C(O)C(O)COP(=O)(O)OP(=O)(O)OCC3OC(n4cnc5c(N)ncnc54)C(O)C3O)c2cc1C (centres undefined) [FAD] | 4.15
COc1cc(C=CC(=O)O)ccc1O [FERULATE] | 5.17
Cc1cc2nc3c(=O)[nH]c(=O)nc-3n(CC(O)C(O)C(O)COP(=O)(O)O)c2cc1C (centres undefined) [FLAVIN MONONUCLEOTIDE] | 3.73
O=c1cc(-c2ccccc2)oc2ccccc12 [FLAVONE] | 7.23
Nc1nc2ncc(CNc3ccc(C(=O)NC(CCC(=O)O)C(=O)O)cc3)nc2c(=O)[nH]1 (centres undefined) [FOLATE] | 4.02
COc1ccc(-c2coc3cc(O)ccc3c2=O)cc1 [FORMONONETIN] | 6.65
O=C(O)c1cc(O)c(O)c(O)c1 [GALLIC ACID] | 1.34
Cc1c(O)cc2c(c1C)OC(C)(CCC(=O)O)CC2 (centres undefined) [GAMMA-CEHC] | 6.69
NC(CCC(=O)NC(Cc1ccccc1)C(=O)O)C(=O)O (centres undefined) [GAMMA-GLUTAMYLPHENYLALANINE] | 3.65
CC(CC(=O)CC(C)C1CC(O)C2(C)C3=C(C(=O)CC12C)C1(C)CCC(=O)C(C)(C)C1CC3O)C(=O)O (centres undefined) [GANODERIC ACID A] | 6.82
